Reference: ChEMBL document CHEMBL1130929, “Conformationally restricted analogues of nicotine and anabasine” (Bioorg Med Chem Lett, 1998)

Columns and labels:
[1] = In vitro agonist activity against activated human recombinant alpha3-beta4 neuronal acetylcholine receptors (nAChR) in Xenopus Oocytes; type: functional, cell-based
[2] = target: T1, Neuronal acetylcholine receptor; alpha2/beta4 (Homo sapiens, UniProt P30926+Q15822); test: (§1) Compound was evaluated for agonist activity against activated human recombinant Nicotinic acetylcholine receptor alpha2-beta4 in Xenopus Oocytes; type: functional, cell-based
T1 sequence (P30926 whole entry): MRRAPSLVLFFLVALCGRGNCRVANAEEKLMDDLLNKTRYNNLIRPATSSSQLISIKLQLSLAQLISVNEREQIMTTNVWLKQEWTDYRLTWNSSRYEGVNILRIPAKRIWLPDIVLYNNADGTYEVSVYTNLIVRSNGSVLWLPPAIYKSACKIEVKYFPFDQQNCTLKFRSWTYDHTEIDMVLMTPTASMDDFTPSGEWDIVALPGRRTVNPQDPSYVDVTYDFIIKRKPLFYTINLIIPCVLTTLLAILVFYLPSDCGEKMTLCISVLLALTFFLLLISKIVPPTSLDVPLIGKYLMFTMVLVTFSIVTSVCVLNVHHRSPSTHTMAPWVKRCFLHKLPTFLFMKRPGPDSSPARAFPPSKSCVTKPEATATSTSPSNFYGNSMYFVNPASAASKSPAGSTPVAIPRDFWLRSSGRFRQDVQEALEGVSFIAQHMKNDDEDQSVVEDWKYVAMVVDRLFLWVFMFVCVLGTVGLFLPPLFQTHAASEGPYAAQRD
T1 sequence (Q15822 whole entry): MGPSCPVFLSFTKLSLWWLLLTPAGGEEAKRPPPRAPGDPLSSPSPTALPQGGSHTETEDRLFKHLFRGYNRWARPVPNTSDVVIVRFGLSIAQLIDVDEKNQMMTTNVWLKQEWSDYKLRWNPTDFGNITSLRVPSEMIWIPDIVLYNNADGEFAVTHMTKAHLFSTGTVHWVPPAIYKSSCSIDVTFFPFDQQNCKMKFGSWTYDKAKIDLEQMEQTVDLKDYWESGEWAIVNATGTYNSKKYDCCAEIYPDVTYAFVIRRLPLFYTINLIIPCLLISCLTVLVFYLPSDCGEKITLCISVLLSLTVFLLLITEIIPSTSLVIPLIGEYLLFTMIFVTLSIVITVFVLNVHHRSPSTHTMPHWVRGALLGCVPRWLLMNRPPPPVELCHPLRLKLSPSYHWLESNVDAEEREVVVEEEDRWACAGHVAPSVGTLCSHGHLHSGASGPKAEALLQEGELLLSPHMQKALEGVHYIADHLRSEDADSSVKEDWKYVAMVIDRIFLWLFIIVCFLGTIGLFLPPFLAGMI

Rattus norvegicus [3] = species: Rattus norvegicus; test: Compound was tested for its ability to release dopamine from rat striatal slices at 300 uM; type: functional
[4] = target: T1, Neuronal acetylcholine receptor; alpha2/beta4; test: as §1; type: functional, cell-based; remark: listed apart in the source
[5] = target: T2, Neuronal acetylcholine receptor; alpha4/beta2 (Homo sapiens, UniProt P17787+P43681); test: Compound was evaluated for agonist activity against activated human recombinant aNicotinic acetylcholine receptor alpha4-beta2 in Xenopus Oocytes; type: functional, cell-based
T2 sequence (P17787 whole entry): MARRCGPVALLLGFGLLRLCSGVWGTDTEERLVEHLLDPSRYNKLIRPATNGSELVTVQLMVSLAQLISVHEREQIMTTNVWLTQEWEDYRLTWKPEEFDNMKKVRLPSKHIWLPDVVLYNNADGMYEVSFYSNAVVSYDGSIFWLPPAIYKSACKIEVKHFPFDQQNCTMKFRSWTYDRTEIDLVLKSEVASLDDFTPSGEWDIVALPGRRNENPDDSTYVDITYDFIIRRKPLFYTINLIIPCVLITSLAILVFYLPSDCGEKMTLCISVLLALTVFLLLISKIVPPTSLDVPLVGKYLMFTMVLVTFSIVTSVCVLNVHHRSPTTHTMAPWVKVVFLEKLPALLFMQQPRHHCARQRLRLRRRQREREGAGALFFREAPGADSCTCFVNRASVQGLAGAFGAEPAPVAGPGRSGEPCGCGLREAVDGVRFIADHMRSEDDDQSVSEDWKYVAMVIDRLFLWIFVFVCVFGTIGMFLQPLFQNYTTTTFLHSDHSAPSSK
T2 sequence (P43681 whole entry): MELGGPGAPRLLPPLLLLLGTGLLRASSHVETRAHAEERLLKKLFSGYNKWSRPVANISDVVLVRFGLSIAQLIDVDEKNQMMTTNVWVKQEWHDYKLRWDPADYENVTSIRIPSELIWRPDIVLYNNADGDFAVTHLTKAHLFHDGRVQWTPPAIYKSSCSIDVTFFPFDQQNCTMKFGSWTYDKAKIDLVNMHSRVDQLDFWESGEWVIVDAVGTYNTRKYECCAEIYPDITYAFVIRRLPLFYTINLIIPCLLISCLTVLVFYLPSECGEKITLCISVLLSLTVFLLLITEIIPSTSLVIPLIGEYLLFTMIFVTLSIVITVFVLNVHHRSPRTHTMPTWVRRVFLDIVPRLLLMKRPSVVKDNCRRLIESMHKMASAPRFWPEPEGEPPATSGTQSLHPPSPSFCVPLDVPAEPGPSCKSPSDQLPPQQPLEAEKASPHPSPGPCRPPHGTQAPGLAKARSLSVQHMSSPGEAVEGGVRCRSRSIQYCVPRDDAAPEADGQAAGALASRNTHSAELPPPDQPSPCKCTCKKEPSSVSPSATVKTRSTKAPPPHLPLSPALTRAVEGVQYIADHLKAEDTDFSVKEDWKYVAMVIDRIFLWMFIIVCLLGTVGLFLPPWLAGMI

[6] = target: T2, Neuronal acetylcholine receptor; alpha4/beta2; test: Compound was evaluated for agonist activity against activated human recombinant Nicotinic acetylcholine receptor alpha4-beta2 in Xenopus Oocytes; type: functional, cell-based
[7] = target: Neuronal acetylcholine receptor; alpha3/beta4 (Homo sapiens) (UniProt P30926+P32297); test: In vitro agonist activity against activated human recombinant Nicotinic acetylcholine receptor alpha3-beta4 in Xenopus Oocytes; type: functional, cell-based
[8] = In vitro ability to displace tritiated nicotine from rat brain binding sites
[9] = target: T3, Neuronal acetylcholine receptor; alpha4/beta4 (Homo sapiens, UniProt P30926+P43681); test: Compound was evaluated for agonist activity against activated human recombinant Nicotinic acetylcholine receptor alpha4-beta4 in Xenopus Oocytes; type: functional, cell-based
T3 sequence (P30926 whole entry): as the sequence (P30926 whole entry) above
T3 sequence (P43681 whole entry): as the sequence (P43681 whole entry) above

[10] = target: T3, Neuronal acetylcholine receptor; alpha4/beta4; test: Compound was evaluated for its agonist activity against activated human recombinant Nicotinic acetylcholine receptor alpha4-beta4 in Xenopus Oocytes; type: functional, cell-based
[11] = In vitro ability to displace tritiated nicotine from rat brain binding sites, and calcium flux (c.f)
Rattus norvegicus [12] = species: Rattus norvegicus; test: In vitro ability to release dopamine from rat striatal slices; type: functional

Row | Structure (SMILES) | EC50 [1] [µM] | Efficacy [2] [%] | Efficacy (Rattus norvegicus [3]) | EC50 [4] [µM] | EC50 [5] [µM] | Efficacy [6] [%] | Efficacy [7] [%] | IC50 [8] [µM] | Efficacy [9] [%] | EC50 [10] [µM] | IC50 [11] [µM] | Efficacy (Rattus norvegicus [12]) [%]
1 | COc1cc2c(cn1)C1NCCC1CC2 (stereo not drawn) | 81 | 22 | 73 | 87 | 3 | 8 | 5 | 1.9 | 44 | 32 | – | –
2 | CN1CCC[C@H]1c1cccnc1 [NICOTINE] | – | – | – | – | – | – | – | – | – | – | 0.004 | –
3 | c1cc2c(cn1)C1NCCC1CC2 (stereo not drawn) | – | – | – | – | – | – | – | – | – | – | 0.51 | 56
